From PMC7292393 (PLoS ONE, 2020)
Where “and” joins values, the source holds several entries; their conditions need not be identical. Identical values can stand only once. Like-named read-outs stand apart in the source and are kept apart here.

Experiments:
human SUMO1 [1] = biological target: T1, human SUMO1 (Homo sapiens, UniProt P63165); test: Fluorescence quenching of fisetin; type: binding; conditions: 0.5 μM fisetin, emission 511.5 nm, corrected for dilution
T1 construct: encoding amino acids 1–97 of mature human SUMO1; host or cells: E. coli BL21 Rosetta (DE3)
T1 sequence (P63165 1-97): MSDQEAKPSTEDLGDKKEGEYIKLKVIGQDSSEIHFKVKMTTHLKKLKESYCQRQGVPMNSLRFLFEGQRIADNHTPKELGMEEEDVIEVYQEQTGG
Description: (§1) The spectrum between 390–600 nm was measured with a PerkinElmer LS-55 fluorescence spectrometer. […] Excitation and emission slit wavelengths were 5 and 10 nm, respectively, with scan speed of 500 nm/min. […] Values were corrected for dilution as follows: Relative fluorescence values were calculated by subtracting fluorescence quenching observed upon addition of buffer alone.

bovine ubiquitin = biological target: T2, bovine ubiquitin (Bos taurus, UniProt P0CG53); test: Fluorescence quenching of fisetin; type: binding; conditions: 0.5 μM fisetin, corrected for dilution
T2 construct: native bovine ubiquitin (U6253); purchased Sigma-Aldrich U6253
Description: as §1

human SUMO1 [2] = biological target: T1, human SUMO1; test: SPR secondary screen / dose-dependent binding; parameters: key to SPR Screens 2°: ✓: dose-dependent saturation kinetics; ×: no indication of saturation kinetics
[3] = biological target: T3, sumoylation of HSF1 by SUMO1 (Homo sapiens, UniProt P63165); test: In vitro sumoylation (SUMOlink SUMO-1 Kit), Western blot; type: biochemical; conditions: 300 μM fisetin, 30°C for 3 hr
T3 construct: purchased Active Motif 40120; host or cells: HSF1 substrate made in house in E. coli BL21 Rosetta (DE3)
T3 sequence (P63165 1-97 limits assumed): as the sequence (P63165 1-97) above
Source text: To this end, we performed in vitro sumoylation experiments in which the cellular sumoylation reaction was reconstituted using purified human SUMO1, E1 activating enzyme, E2 conjugating enzyme, and two putative protein substrates (human tumor suppressor p53 and human transcription factor HSF1). E1 activating enzyme functions by transferring active SUMO1 protein to the E2 conjugating enzyme Ubc9, which in turn attaches SUMO1 onto target protein substrates. Both p53 and HSF1 proteins are linked to sumoylation as well as to cancer pathways.
Proteins were separated by SDS-PAGE using 4–20% or 7.5% Mini-PROTEAN TGX Precast Protein Gels (Bio-Rad, Hercules, CA) followed by detection with Bio-Safe Coomassie Stain (Bio-Rad). For Western immunoblotting experiments, proteins in SDS-PAGE gels were transferred onto a PVDF membrane at 4°C using Mini Trans-Blot Cell (Bio-Rad), blocked with 5% nonfat milk for 1 hr at room T or overnight at 4°C and incubated with the following primary antibodies at indicated dilutions for 1 hr at room T: 1:10,000 HSF1 polyclonal antibody (Enzo Life Sciences ADI-SPA-901-F; Lausen, Switzerland), 1:4000 p53 rabbit antibody (SUMOlink SUMO-1 Kit), 1:5000 SUMO-1 rabbit antibody (SUMOlink SUMO-1 Kit). Secondary antibody incubation was performed for 1 hr at room T using 1:10,000 goat anti-rabbit IgG polyclonal antibody (Enzo Life Sciences, ADI-SAB-300). […]

human SUMO1 [4] = biological target: T1, human SUMO1; test: Surface plasmon resonance (SPR) primary screen; type: binding;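 note: recombinant human SUMO1 amine-coupled to a sensor chip, blank activated and quenched reference flow cell, flavonoids injected 2 min then 1 min dissociation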

quenching of fisetin fluorescence by SUMO1 (human SUMO1 [1]): Saturable binding was observed
quenching of fisetin fluorescence by ubiquitin (bovine ubiquitin): only marginal quenching
Kd (human SUMO1 [2]; fisetin ~12 to 250 μM, Fig 2I, average of six replicates, read-out: Kd (SPR, extended range of concentrations)): 228 µM and ~228 µM
SPR Screens 2° (human SUMO1 [2]; five concentrations 31.25-500 μM): ✓
Kd (human SUMO1 [2]; one-site hyperbola fit, 31.25-500 μM flavonoid, Fig 2A-C, read-out: Kd (SPR secondary screen)): 124 µM and ~124 µM
Kd (human SUMO1 [2]; range over the two experiments, Fig 2A and 2I, read-out: estimated Kd ranging (SPR)): 124 to 228 µM
sumoylation of HSF1 in vitro [3]: failed to alter sumoylation
%RUmax (human SUMO1 [4]; SPR primary screen, 500 μM flavonoid in DMSO, (Mean RU/RUmax)*100): 18.9%
SMILES: O=c1c(O)c(-c2ccc(O)c(O)c2)oc2cc(O)ccc12 [Fisetin, 3,3',4',7-tetrahydroxyflavone]
saturation binding in SPR secondary screen (human SUMO1 [2]; Fig 2A-H): exhibited binding that approached saturation
SPR Screens 1° (human SUMO1 [4]; 500 μM flavonoid in DMSO, cut-off of %RUmax of ~15): ✓ (%RUmax with binding activity above cut-off)
interaction in SPR primary screen (human SUMO1 [4]; 500 μM, %RUmax above threshold of ~15%): interacted with SUMO1 in the primary screen
